According to patent US12275722B2, “Process of reworking a crystalline form of a glycine transport inhibitor” (Boehringer Ingelheim International GmbH, priority 2020, dated 2025):

Key:
[1] = Bulk density of the dried/homogenized Compound batches; assay type: physicochemical; conditions: reworked (dried, homogenized) drug substance batch
[2] = Water sorption (dynamic vapor sorption), water-uptake; assay type: physicochemical; conditions: 25° C., 90% relative humidity for 6 hours under humid nitrogen purge
Method: Water sorption isotherms can be determined using a dynamic vapor sorption system (Advantage, DVS, London, UK). The samples are subjected to 0 to 90% relative humidity (RH) stepwise with a step size of 10% at 25° C. Each sample is equilibrated at each RH step for at least 60 min, and equilibrium is assumed if weight increase is less than 0.1% within one minute, and the maximum duration on each RH is 6 hours. Therefore, each sample is held at a given RH for 1 to 6 hours depending on how fast the equilibrium is reached.

SMILES: C[C@@H](Oc1ccc(S(C)(=O)=O)cc1C(=O)N1C[C@@H]2C[C@]2(c2cc(C(F)(F)F)on2)C1)C(F)(F)F [Batch 1TA]
- Bulk density ([1]; listed as 1TA): 0.17 g/mL

SMILES: C[C@@H](Oc1ccc(S(C)(=O)=O)cc1C(=O)N1C[C@@H]2C[C@]2(c2cc(C(F)(F)F)on2)C1)C(F)(F)F [Batch 1TB]
- Bulk density ([1]; listed as 1TB): 0.16 g/mL

SMILES: C[C@@H](Oc1ccc(S(C)(=O)=O)cc1C(=O)N1C[C@@H]2C[C@]2(c2cc(C(F)(F)F)on2)C1)C(F)(F)F [Batch 2TA]
- Bulk density ([1]; listed as 2TA): 0.17 g/mL

SMILES: C[C@@H](Oc1ccc(S(C)(=O)=O)cc1C(=O)N1C[C@@H]2C[C@]2(c2cc(C(F)(F)F)on2)C1)C(F)(F)F [Batch 2TB]
- Bulk density ([1]; listed as 2TB): 0.2 g/mL

SMILES: C[C@@H](Oc1ccc(S(C)(=O)=O)cc1C(=O)N1C[C@@H]2C[C@]2(c2cc(C(F)(F)F)on2)C1)C(F)(F)F [Batch 3TA]
- Bulk density ([1]; listed as 3TA): 0.18 g/mL

SMILES: C[C@@H](Oc1ccc(S(C)(=O)=O)cc1C(=O)N1C[C@@H]2C[C@]2(c2cc(C(F)(F)F)on2)C1)C(F)(F)F [Batch 3TB]
- Bulk density ([1]; listed as 3TB): 0.17 g/mL

SMILES: C[C@@H](Oc1ccc(S(C)(=O)=O)cc1C(=O)N1C[C@@H]2C[C@]2(c2cc(C(F)(F)F)on2)C1)C(F)(F)F [Batch 4TA]
- Bulk density ([1]; listed as 4TA): 0.22 g/mL

SMILES: C[C@@H](Oc1ccc(S(C)(=O)=O)cc1C(=O)N1C[C@@H]2C[C@]2(c2cc(C(F)(F)F)on2)C1)C(F)(F)F [Batch 4TB]
- Bulk density ([1]; listed as 4TB): 0.17 g/mL

SMILES: C[C@@H](Oc1ccc(S(C)(=O)=O)cc1C(=O)N1C[C@@H]2C[C@]2(c2cc(C(F)(F)F)on2)C1)C(F)(F)F [Batch 5]
- Bulk density ([1]; listed as 5): 0.14 g/mL

SMILES: C[C@@H](Oc1ccc(S(C)(=O)=O)cc1C(=O)N1C[C@@H]2C[C@]2(c2cc(C(F)(F)F)on2)C1)C(F)(F)F [Batch 6]
- Bulk density ([1]; listed as 6): 0.15 g/mL

SMILES: C[C@@H](Oc1ccc(S(C)(=O)=O)cc1C(=O)N1C[C@@H]2C[C@]2(c2cc(C(F)(F)F)on2)C1)C(F)(F)F [Batch 17102]
- Bulk density ([1]; listed as 17102): 0.35 g/mL

SMILES: C[C@@H](Oc1ccc(S(C)(=O)=O)cc1C(=O)N1C[C@@H]2C[C@]2(c2cc(C(F)(F)F)on2)C1)C(F)(F)F [Batch 17103]
- Bulk density ([1]; listed as 17103): 0.50 g/mL

SMILES: C[C@@H](Oc1ccc(S(C)(=O)=O)cc1C(=O)N1C[C@@H]2C[C@]2(c2cc(C(F)(F)F)on2)C1)C(F)(F)F [Batch 17104]
- Bulk density ([1]; listed as 17104): 0.23 g/mL

SMILES: C[C@@H](Oc1ccc(S(C)(=O)=O)cc1C(=O)N1C[C@@H]2C[C@]2(c2cc(C(F)(F)F)on2)C1)C(F)(F)F [Batch 18105]
- Bulk density ([1]; listed as 18105): 0.12 g/mL

SMILES: C[C@@H](Oc1ccc(S(C)(=O)=O)cc1C(=O)N1C[C@@H]2C[C@]2(c2cc(C(F)(F)F)on2)C1)C(F)(F)F [Batch 18106]
- Bulk density ([1]; listed as 18106): 0.15 g/mL

SMILES: C[C@@H](Oc1ccc(S(C)(=O)=O)cc1C(=O)N1C[C@@H]2C[C@]2(c2cc(C(F)(F)F)on2)C1)C(F)(F)F [Batch 18107]
- Bulk density ([1]; listed as 18107): 0.14 g/mL

SMILES: C[C@@H](Oc1ccc(S(C)(=O)=O)cc1C(=O)N1C[C@@H]2C[C@]2(c2cc(C(F)(F)F)on2)C1)C(F)(F)F [Batch 1098942]
- Bulk density ([1]; listed as 8942): 0.16 g/mL

SMILES: C[C@@H](Oc1ccc(S(C)(=O)=O)cc1C(=O)N1C[C@@H]2C[C@]2(c2cc(C(F)(F)F)on2)C1)C(F)(F)F [Batch 1098943]
- Bulk density ([1]; listed as 8943): 0.14 g/mL

SMILES: C[C@@H](Oc1ccc(S(C)(=O)=O)cc1C(=O)N1C[C@@H]2C[C@]2(c2cc(C(F)(F)F)on2)C1)C(F)(F)F [Batch 1098954]
- Bulk density ([1]; listed as 8954): 0.15 g/mL

SMILES: C[C@@H](Oc1ccc(S(C)(=O)=O)cc1C(=O)N1C[C@@H]2C[C@]2(c2cc(C(F)(F)F)on2)C1)C(F)(F)F [Batch 1098955]
- Bulk density ([1]; listed as 8955): 0.15 g/mL

SMILES: C[C@@H](Oc1ccc(S(C)(=O)=O)cc1C(=O)N1C[C@@H]2C[C@]2(c2cc(C(F)(F)F)on2)C1)C(F)(F)F [Batch 1099100]
- Bulk density ([1]; listed as 9100): 0.15 g/mL

SMILES: C[C@@H](Oc1ccc(S(C)(=O)=O)cc1C(=O)N1C[C@@H]2C[C@]2(c2cc(C(F)(F)F)on2)C1)C(F)(F)F [Batch 1099101]
- Bulk density ([1]; listed as 9101): 0.14 g/mL

SMILES: C[C@@H](Oc1ccc(S(C)(=O)=O)cc1C(=O)N1C[C@@H]2C[C@]2(c2cc(C(F)(F)F)on2)C1)C(F)(F)F [Batch 1099102]
- Bulk density ([1]; listed as 9102): 0.15 g/mL

SMILES: C[C@@H](Oc1ccc(S(C)(=O)=O)cc1C(=O)N1C[C@@H]2C[C@]2(c2cc(C(F)(F)F)on2)C1)C(F)(F)F [Batch 1099103]
- Bulk density ([1]; listed as 9103): 0.15 g/mL

SMILES: C[C@@H](Oc1ccc(S(C)(=O)=O)cc1C(=O)N1C[C@@H]2C[C@]2(c2cc(C(F)(F)F)on2)C1)C(F)(F)F [Batch 1099104]
- Bulk density ([1]; listed as 9104): 0.15 g/mL

SMILES: C[C@@H](Oc1ccc(S(C)(=O)=O)cc1C(=O)N1C[C@@H]2C[C@]2(c2cc(C(F)(F)F)on2)C1)C(F)(F)F [amorphous form, [5-(methylsulfonyl)-2-{[(2R)-1,1,1-trifluoropropan-2-yl]oxy}phenyl]{(1R,5R)-1-[5-(trifluoromethyl)-1,2-oxazol-3-yl]-3-azabicyclo[3.1.0]hex-3-yl}methanone]
- Water-uptake [2]: 1.4%

SMILES: C[C@@H](Oc1ccc(S(C)(=O)=O)cc1C(=O)N1C[C@@H]2C[C@]2(c2cc(C(F)(F)F)on2)C1)C(F)(F)F [polymorph II, [5-(methylsulfonyl)-2-{[(2R)-1,1,1-trifluoropropan-2-yl]oxy}phenyl]{(1R,5R)-1-[5-(trifluoromethyl)-1,2-oxazol-3-yl]-3-azabicyclo[3.1.0]hex-3-yl}methanone]
- Water-uptake [2]: about 0.04%
